Data from patent US11207431B2, “HDAC6 inhibitors and imaging agents” (The General Hospital Corporation, priority 2017, dated 2021).
pIC50: −log10 of the molar value. One block for each molecule: values may come before it.

Key:
[1] = molecular target: HDAC6 (Homo sapiens (Human), UniProt Q9UBN7); conditions: read-out: HDAC6 IC50; comparison compound C, source not stated
[2] = molecular target: HDAC4 (Homo sapiens (Human), UniProt P56524); assay: IC50 values of comparison compounds B-F (Table 1B); format: biochemical; conditions: comparison compound C, source not stated
Text: (§1) [drawing 62] (see e.g., WO 2015/058106; Fluorescent-intensity-based enzymatic assay, multiple runs; duplicates);

[3] = molecular target: HDAC8 (Homo sapiens (Human), UniProt Q9BY41); assay: IC50 values of comparison compounds B-F (Table 1B); format: biochemical; conditions: comparison compound C, source not stated
Text: as §1

[4] = molecular target: HDAC11 (Homo sapiens (Human), UniProt Q96DB2); assay: IC50 values of comparison compounds B-F (Table 1B); format: biochemical; conditions: comparison compound C, source not stated
Text: as §1

[5] = molecular target: HDAC9 (Homo sapiens (Human), UniProt Q9UKV0); assay: IC50 values of comparison compounds B-F (Table 1B); format: biochemical; conditions: comparison compound C, source not stated
Text: as §1

[6] = molecular target: T1, HDAC3 (Homo sapiens (Human), UniProt O15379); assay: IC50 values of comparison compounds B-F (Table 1B); format: biochemical; conditions: comparison compound C, source not stated
Text: as §1

[7] = molecular target: T2, HDAC1 (Homo sapiens (Human), UniProt Q13547); assay: IC50 values of comparison compounds B-F (Table 1B); format: biochemical; conditions: comparison compound C, source not stated
Text: as §1

[8] = molecular target: T3, HDAC10 (Homo sapiens (Human), UniProt Q969S8); assay: IC50 values of comparison compounds B-F (Table 1B); format: biochemical; conditions: comparison compound C, source not stated
Text: as §1
Target sequence in this assay (Q969S8 whole entry, species assumed): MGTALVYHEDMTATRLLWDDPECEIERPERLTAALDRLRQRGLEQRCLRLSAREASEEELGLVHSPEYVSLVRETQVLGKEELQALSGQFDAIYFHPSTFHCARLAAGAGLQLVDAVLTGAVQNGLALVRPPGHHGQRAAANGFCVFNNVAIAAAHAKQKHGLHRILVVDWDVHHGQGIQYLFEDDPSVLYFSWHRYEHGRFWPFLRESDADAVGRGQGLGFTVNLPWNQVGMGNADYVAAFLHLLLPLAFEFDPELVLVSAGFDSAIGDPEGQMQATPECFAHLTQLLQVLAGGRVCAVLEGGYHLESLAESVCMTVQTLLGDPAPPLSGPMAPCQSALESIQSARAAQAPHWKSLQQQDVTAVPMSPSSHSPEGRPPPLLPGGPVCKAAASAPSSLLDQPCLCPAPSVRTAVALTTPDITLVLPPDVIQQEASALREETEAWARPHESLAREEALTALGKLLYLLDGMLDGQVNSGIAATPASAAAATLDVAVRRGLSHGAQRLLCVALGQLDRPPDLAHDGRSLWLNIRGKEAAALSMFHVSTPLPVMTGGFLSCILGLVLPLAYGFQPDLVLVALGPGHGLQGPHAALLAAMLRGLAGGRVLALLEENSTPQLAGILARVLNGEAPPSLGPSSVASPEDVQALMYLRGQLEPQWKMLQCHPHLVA

[9] = molecular target: T4, HDAC2 (Homo sapiens (Human), UniProt Q92769); assay: IC50 values of comparison compounds B-F (Table 1B); format: biochemical; conditions: comparison compound C, source not stated
Text: as §1

[10] = molecular target: HDAC5 (Homo sapiens (Human), UniProt Q9UQL6); assay: IC50 values of comparison compounds B-F (Table 1B); format: biochemical; conditions: comparison compound C, source not stated
Text: as §1

[11] = molecular target: T3, HDAC10; assay: IC50 assay, BPS Biosciences fluorescence assay; format: biochemical
Target sequence in this assay (Q969S8 whole entry): as the sequence (Q969S8 whole entry, species assumed) above

[12] = PET/CT imaging in rats; format: in vivo, Sprague-Dawley rats
Description: 8 male Sprague-Dawley rats (Charles River Laboratories) were used for PET imaging. […] For intravenous administration, a catheter with an extension line was placed in a lateral tail vein. Each animal received a bolus injection of either vehicle (1:1:8 DMSO/Tween80/saline) or blocking agent in solution (1 mg/kg, 1 mg/mL in 1:1:8 DMSO/Tween80/saline) immediately prior to injection of the radiotracer.
After injection of a radiotracer bolus ([…] Example 2) a 90 min dynamic PET scan was acquired in pairs for all animals. PET scans were performed on a GammaMedica Triumph PET/CT/SPECT scanner, corrected for attenuation with a μ-map derived from the corresponding CT image, which was acquired immediately following the PET scan. The dynamic PET data was binned into 38 timeframes (8×15 s, 8×1 min, 10×2 min, 12×5) and reconstructed individually via an iterative MLEM (maximum likelihood expectation maximization) algorithm in 16 iterations.
PET images were to the CT image acquired from the same animal using AMIDE Data sets were cropped and all further image analysis was conducted using PMOD 3.3 (PMOD Technologies, Zurich, Switzerland). For maximum consistency, the data were coregistered to the Schiffer Px Rat rat brain template and data was derived from a whole brain VOI (volumes of interest) for time activity curves.

[13] = molecular target: T1, HDAC3; assay: IC50 assay by Nanosyn (Caliper microfluidics mobility shift detection); format: biochemical; conditions: IC50 measured by Nanosyn
Description: (§2) IC50 measurements were conducted by BPS Biosciences (Table 1) or by Nanosyn (Table 1A) with an established fluorescence assay. […] A=Martinostat (Caliper (microfluidics mobility shift detection) by Nanosyn (same run, duplicates));

[14] = molecular target: T2, HDAC1; assay: as above; format: biochemical; conditions: IC50 measured by Nanosyn
Description: as §2

[15] = molecular target: T3, HDAC10; assay: as above; format: biochemical; conditions: IC50 measured by Nanosyn
Description: as §2
Target sequence in this assay (Q969S8 whole entry): as the sequence (Q969S8 whole entry, species assumed) above

[16] = molecular target: T4, HDAC2; assay: as above; format: biochemical; conditions: IC50 measured by Nanosyn
Description: as §2

[17] = test system: DiscoverX Safety47 panel: 24 GPCRs, 2 nuclear hormone receptors, 3 neurotransmitter transporters, 8 ion channels, 4 kinases, 6 other enzymes; assay: Safety (DiscoverX Safety47 Panel); conditions: at 10 μM; 78 assays
[18] = male, C57BL/6, mouse, in vivo, po, 5 mg/kg
[19] = Hepatocyte stability; conditions: human, hepatocytes
[20] = Microsome stability; conditions: human, microsomes
[21] = molecular target: T2, HDAC1; assay: IC50 assay, BPS Biosciences fluorescence assay; format: biochemical; conditions: IC50 measured by BPS
[22] = in vivo; conditions: C57BL/6, mouse
[23] = Brain penetrance comparison; conditions: in vivo
[24] = in vitro; conditions: mouse, microsomes
[25] = molecular target: T4, HDAC2; assay: IC50 assay, BPS Biosciences fluorescence assay; format: biochemical; conditions: IC50 measured by BPS
[26] = molecular target: HDAC6 (Rattus norvegicus (Rat), UniProt A0A8I6GM68); assay: Autoradiography competition with radiolabeled Example 2 on rat brain slices; format: binding, Sprague-Dawley rat; conditions: blocking compound at 1 μM
Description: Sagittal slices of Sprague-Dawley rat brains were sectioned (10 μm) with a cryostat (Thermo Scientific HM550) and mounted onto ColorFrost Plus microscope slides (Fisher Scientific 12-550-18) and stored at −20° C. […] After 15 min, 50 μCi of the radiolabeled compound of Example 2 was added to each bath. After 15 minutes, all slides were washed by dipping 10× into buffer and subsequently submerged in 50 mL baths of buffer at 4° C. for 5 minutes. The slides were dried at 35° C. in a vacuum chamber. A phosphorus screen (Perkin Elmer 7001723) was exposed with the slides for 45 minutes and subsequently imaged with a Cyclone Plus Storage Phosphor (Perkin Elmer) detector. ImageJ was used to apply a Gaussian blur (3.0 radius) smoothing and a lookup table (Royal) with equivalent thresholds for brightness was applied. Raw intensity values from gray and white matter were quantified with the ImageJ measurement tool.

[27] = molecular target: T1, HDAC3; assay: IC50 assay, BPS Biosciences fluorescence assay; format: biochemical; conditions: IC50 measured by BPS
[28] = test system: Human iPSC-derived neural progenitor cells; assay: Acetylation level assay (Western blot); format: cell-based; conditions: 6 h at 37° C.
[29] = in vitro; conditions: rat, microsomes

T4 sequence (Q92769 whole entry): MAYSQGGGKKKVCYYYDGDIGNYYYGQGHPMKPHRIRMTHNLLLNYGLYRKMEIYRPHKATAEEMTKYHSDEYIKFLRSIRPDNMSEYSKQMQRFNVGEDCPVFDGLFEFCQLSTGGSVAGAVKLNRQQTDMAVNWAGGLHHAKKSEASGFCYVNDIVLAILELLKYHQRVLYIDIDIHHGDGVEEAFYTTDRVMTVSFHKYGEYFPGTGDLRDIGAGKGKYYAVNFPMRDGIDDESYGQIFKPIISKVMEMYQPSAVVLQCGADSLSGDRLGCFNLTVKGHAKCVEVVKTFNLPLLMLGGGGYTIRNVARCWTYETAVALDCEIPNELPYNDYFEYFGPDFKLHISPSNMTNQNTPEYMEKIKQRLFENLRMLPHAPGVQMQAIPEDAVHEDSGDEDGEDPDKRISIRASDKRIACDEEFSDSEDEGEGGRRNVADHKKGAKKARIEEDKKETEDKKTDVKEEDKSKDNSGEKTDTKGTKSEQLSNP
T1 sequence (O15379 whole entry): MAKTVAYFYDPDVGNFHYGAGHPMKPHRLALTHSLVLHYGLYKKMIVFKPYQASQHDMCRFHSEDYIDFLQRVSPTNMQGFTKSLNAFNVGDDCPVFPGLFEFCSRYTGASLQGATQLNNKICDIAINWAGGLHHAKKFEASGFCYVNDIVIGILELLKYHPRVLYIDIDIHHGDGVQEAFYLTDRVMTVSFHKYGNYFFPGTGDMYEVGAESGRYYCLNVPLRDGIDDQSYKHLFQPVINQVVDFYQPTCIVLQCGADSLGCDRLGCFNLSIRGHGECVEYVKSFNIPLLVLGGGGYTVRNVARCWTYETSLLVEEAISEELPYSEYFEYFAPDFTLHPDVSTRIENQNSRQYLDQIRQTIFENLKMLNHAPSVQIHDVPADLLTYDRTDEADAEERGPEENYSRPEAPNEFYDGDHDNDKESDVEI
T1 sequence (Q9Y618 395-489 partner): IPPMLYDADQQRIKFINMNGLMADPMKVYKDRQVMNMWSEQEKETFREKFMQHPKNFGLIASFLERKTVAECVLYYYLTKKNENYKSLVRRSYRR
T2 sequence (Q13547 whole entry): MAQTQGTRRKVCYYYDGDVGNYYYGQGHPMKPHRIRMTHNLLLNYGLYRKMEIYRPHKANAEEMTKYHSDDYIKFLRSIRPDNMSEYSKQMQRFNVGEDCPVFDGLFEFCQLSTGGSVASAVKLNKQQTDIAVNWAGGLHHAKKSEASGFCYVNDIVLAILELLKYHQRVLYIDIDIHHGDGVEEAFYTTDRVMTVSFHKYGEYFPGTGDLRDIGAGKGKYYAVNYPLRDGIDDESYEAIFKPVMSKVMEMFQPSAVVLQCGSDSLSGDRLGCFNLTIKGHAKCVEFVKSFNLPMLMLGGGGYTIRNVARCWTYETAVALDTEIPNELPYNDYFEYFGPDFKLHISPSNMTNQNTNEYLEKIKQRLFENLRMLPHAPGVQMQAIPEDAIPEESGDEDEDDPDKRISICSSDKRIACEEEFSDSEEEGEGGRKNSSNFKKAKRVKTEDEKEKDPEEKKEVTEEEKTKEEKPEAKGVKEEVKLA
HDAC11, sequence (Q96DB2 whole entry, species assumed): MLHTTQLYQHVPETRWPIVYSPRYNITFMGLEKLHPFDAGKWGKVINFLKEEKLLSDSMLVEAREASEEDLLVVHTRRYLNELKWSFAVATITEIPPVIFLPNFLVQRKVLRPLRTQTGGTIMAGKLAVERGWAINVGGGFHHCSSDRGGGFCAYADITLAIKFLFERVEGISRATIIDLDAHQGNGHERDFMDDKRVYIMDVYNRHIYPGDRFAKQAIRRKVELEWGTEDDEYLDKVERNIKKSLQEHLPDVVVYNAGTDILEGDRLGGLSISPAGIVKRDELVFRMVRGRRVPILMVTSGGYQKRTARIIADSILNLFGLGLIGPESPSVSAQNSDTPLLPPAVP
HDAC9, sequence (Q9UKV0 whole entry, species assumed): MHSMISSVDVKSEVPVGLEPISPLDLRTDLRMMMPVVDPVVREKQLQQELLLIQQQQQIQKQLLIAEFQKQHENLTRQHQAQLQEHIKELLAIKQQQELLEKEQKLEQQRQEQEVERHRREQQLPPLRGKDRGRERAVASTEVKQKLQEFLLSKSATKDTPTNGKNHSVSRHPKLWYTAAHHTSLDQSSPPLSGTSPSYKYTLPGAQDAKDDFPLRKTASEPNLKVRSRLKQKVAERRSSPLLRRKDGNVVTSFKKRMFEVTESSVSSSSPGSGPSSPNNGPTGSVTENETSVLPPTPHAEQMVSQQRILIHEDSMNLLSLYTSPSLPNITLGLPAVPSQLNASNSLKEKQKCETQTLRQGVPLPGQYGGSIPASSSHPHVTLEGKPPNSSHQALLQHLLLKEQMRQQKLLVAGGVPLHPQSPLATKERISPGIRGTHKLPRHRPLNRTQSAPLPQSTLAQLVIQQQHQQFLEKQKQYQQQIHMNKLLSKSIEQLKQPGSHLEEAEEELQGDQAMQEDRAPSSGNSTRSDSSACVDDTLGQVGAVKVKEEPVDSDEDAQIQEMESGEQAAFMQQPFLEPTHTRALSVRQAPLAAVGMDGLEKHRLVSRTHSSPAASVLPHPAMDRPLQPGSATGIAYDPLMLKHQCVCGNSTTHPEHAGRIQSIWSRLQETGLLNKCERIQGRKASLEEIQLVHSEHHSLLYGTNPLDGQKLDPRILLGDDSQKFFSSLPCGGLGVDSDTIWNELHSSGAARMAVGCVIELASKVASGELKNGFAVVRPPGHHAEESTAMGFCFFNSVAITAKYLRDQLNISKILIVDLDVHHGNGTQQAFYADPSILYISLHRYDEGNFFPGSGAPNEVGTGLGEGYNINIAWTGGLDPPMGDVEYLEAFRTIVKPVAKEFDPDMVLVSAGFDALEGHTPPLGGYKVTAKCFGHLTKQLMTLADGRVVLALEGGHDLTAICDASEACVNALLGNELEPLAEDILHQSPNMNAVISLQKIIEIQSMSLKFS
HDAC5, sequence (Q9UQL6 whole entry): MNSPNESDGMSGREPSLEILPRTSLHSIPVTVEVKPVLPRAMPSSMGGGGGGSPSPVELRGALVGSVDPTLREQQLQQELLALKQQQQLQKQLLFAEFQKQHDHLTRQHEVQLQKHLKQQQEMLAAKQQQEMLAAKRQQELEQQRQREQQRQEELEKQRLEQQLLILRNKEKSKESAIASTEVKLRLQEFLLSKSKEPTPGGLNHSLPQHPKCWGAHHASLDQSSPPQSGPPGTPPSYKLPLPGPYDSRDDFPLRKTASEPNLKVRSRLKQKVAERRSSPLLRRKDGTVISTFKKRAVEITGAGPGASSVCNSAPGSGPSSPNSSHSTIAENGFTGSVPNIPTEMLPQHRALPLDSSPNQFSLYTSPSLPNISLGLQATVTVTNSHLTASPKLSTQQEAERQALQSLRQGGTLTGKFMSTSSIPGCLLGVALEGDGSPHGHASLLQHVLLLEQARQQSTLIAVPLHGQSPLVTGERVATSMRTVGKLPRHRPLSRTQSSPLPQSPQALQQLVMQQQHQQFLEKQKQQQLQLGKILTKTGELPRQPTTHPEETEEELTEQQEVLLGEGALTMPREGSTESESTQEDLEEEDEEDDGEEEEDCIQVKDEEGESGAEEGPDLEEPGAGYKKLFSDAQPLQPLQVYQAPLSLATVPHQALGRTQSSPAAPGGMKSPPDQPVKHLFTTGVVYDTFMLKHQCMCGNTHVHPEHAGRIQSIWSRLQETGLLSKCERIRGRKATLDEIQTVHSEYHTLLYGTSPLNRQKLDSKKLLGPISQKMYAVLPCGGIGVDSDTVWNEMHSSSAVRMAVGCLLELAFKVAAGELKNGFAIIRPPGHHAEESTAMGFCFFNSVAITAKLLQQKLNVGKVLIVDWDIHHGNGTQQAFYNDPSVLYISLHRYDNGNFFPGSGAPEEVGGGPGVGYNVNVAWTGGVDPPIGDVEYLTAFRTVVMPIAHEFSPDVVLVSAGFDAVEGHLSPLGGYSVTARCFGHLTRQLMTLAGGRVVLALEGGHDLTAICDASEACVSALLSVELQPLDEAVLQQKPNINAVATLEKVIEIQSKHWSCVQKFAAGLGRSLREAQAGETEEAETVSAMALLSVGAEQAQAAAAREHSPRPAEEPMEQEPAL

pIC50 [1]: 7.48 | pIC50 [2]: 7.47 | pIC50 [3]: 6.44 | pIC50 [4]: 5.44 | pIC50 [5]: 7.28 | pIC50 [6]: 7.62 | pIC50 [7]: 7.70 | pIC50 [8]: 7.60 | pIC50 [9]: 7.19 | pIC50 [10]: 6.92
Structure (SMILES): CN(c1ncc(C(=O)NO)cn1)C12CC3CC(CC(C3)C1)C2 [C]

Structure (SMILES): CN(Cc1ccc(C(=O)NO)cc1F)CC12CC3CC(CC(C3)C1)C2 [Example 1, 4-(((((3s)-Adamantan-1-yl)methyl)(methyl)amino)methyl)-3-fluoro-N-hydroxybenzamide]
IC50 ([11]; BPS Biosciences, unit mM printed in cell): > 1 mM | pIC50 ([11]; IC50 measured by BPS): < 6.00 | inhibition at 1000 µM ([11]; read-out: HDAC10 Percentage Inhibition): 21% | effect on time activity curve of radiolabeled Example 2 ([12]; 1 mg/kg, 30-minutes post radiotracer administration): clear deflection of the time activity curve | effect on brain uptake of radiolabeled Example 2 ([12]; non-radioactive compound at 1 mg/kg): blocking of brain uptake | pIC50 [13]: < 6.00 | pIC50 [14]: < 6.00 | pIC50 [15]: < 6.00 | pIC50 [16]: < 6.00 | Safety (DiscoverX Safety47 Panel) [17]: No effect at 10 μM | T1/2 [18]: 15 min | half-life [19]: 20 min | half-life [20]: 19 min | pIC50 [21]: < 6.00 | bioavailability ([22]; po): 10% | half-life ([22]; male, ip, 5 mg/kg): 4.8 min | half-life ([22]; male, po, 5 mg/kg): 15 min | Cmax ([22]; male, po, 5 mg/kg, Cmax): 460 nM | Brain-penetrant? [23]: +++ | half-life [24]: < 10 min | pIC50 [25]: < 6.00 | binding of radiolabeled Example 2 to rat brain slices [26]: significantly reduced | pIC50 [27]: < 6.00 | Histone acetylation (H3K9 and H4K12) ([28]; 10 μM): remained unaltered | amount of cellular acetyl-α-Tubulin ([28]; ACY1215 5 μM, other compounds 10 μM): increased | half-life [29]: < 10 min
